This is an account of results in patent US3932664A, “Substituted phenoxyalkyl quaternary ammonium compounds as antiarrhythemic agents” (priority 1974, dated 1976).

Where only a bound is given, the exact number is not on record here.

In the test the test system is arrhythmia after experimental coronary artery occlusion in dogs. Briefly: abnormal complexes after experimental occlusion of the anterior descending coronary artery in dogs. Conditions: dog. The class given is in vivo. The procedure: An experimental occlusion of the anterior descending coronary artery is produced in dogs according to the method of Harris, Circulation 1, 1318 (1950). Following surgery the animals are given a penicillin-streptomycin preparation and allowed to recover for 18-24 hours. The animals are given 3 milligrams per kilogram of morphine sulfate as an analgetic and sedative to allow handling. Electrocardiograms are recorded both before and after administration of [2-([…])ethyl]dimethyl-(2-methylallyl)ammonium chloride to the test animals. The incidence of abnormal complexes (premature ventricular contractions and atrioventricular nodal beats) per minute is recorded as a percentage of total beats per minute. In one such operation the test compound is administered by intravenous infusion at rates of 1, 2, 2 and 2 milligrams per kilogram at intervals of 10 to 15 minutes. […] Following the last infusion of test compound the heartbeat rate is observed to have decreased from a rate of over 160 beats per minute prior to the first infusion to about 90-100 beats per minute. The incidence of ectopic beats at this time has decreased from a pre-treatment level of 100 percent abnormal beats per minute to below 60 percent, reaching zero (100 percent normal beats) within about 10 minutes after the last infusion. The lower heartbeat rate and low incidence of abnormal beats (generally 0 to 20 percent of the total beats per minute are abnormal) is found to persist for 2 hours following the last infusion of test compound, at which time the experiment is terminated.
In similar operations, the same test compound is infused at dosages of 1, 2 and 4 milligrams per kilogram at intervals over a forty minute period. Prior to infusion the incidence of abnormal beats is 100 percent. […] The incidence of abnormal beats is found to remain at zero with occasional brief periods of slight arrhythmia (2-5 percent abnormal beats) for 2.5 hours following the last dosage of the test compound, when recording is terminated.
In a similar operation the [2-([…])ethyl]dimethyl(2-methylallyl)ammonium chloride is administered orally in gelatin capsules. The test compound is administered in multiple dosages of 30, 30 and 50 milligrams per kilogram over a period of 150 minutes. […] Antiarrhythmic effects continue to be observed until the recording is terminated 140 minutes after the last dose of test compound.

[1] abbreviates: iv infusion, following the first infusion (1 mg/kg).

As to `C=C(C)C[N+](C)(C)CCOc1c(Br)cc(N)cc1Br.[Cl-]` [Example 1, [2-(4-amino-2,6-dibromophenoxy)ethyl]-dimethyl(2-methylallyl)ammonium chloride], the “time after last infusion to substantially complete conversion to sinus rhythm” value (infused 1, 2 and 4 mg/kg over forty minutes) was “eight”. Also, the “conversion to sinus rhythm” value (infused 1, 2 and 4 mg/kg over forty minutes, incidence of abnormal beats 100 percent before) is recorded as “substantially complete conversion to sinus rhythm”. For the setting “infused 1, 2 and 4 mg/kg, following last dosage, recording then terminated”, the “time for which incidence of abnormal beats remains at zero (with occasional slight arrhythmia)” value was at least 2.5 h. Under “infused 1, 2 and 4 mg/kg, for 2.5 hours following the last dosage”, the “incidence of abnormal beats” value was “zero”. Moreover, the “anti-arrhythmic effects on resumption of recording” value (infused 1, 2 and 4 mg/kg, recording resumed 215 minutes later) was “significant anti-arrhythmic effects are still exhibited”. Moreover, where the note is “infused 1, 2 and 4 mg/kg, within 2.5 hours following the last dosage”, the “abnormal beats during occasional brief periods of slight arrhythmia” value is 2-5%. Besides, under “iv 1, 2, 2 and 2 mg/kg”, the “time after last infusion to zero ectopic beats (100 percent normal beats)” value was at most 10 min. Where the note is “iv 1, 2, 2 and 2 mg/kg, following last infusion, experiment terminated at that time”, the “persistence of lower heartbeat rate and low incidence of abnormal beats” value was at least 2 h. Further, the heartbeat rate (iv 1, 2, 2 and 2 mg/kg, following last infusion, over 160 beats per minute prior to first infusion, in beats/min) was 90-100. In addition, the “incidence of ectopic beats (percent abnormal beats per minute)” value (iv 1, 2, 2 and 2 mg/kg, following last infusion, pre-treatment 100 percent) is “below 60%”. Moreover, the “incidence of ectopic beats” value (iv 1, 2, 2 and 2 mg/kg, within about 10 minutes after the last infusion) is on record as “zero”. Under setting [1], the “change in percentage of abnormal beats per minute” value is “concomitant decrease” and the “heart beat rate change” value was “marked decrease”. In addition, where the note is “oral 30, 30 and 50 mg/kg”, the “antiarrhythmic effects of the second and third doses” value is “further and more consistent antiarrhythmic effects”; the “time after last dose to periods with less than 10 percent abnormal beats” value is listed as “about 25 minutes”. For the same molecule, for the setting “oral 30, 30 and 50 mg/kg, beginning about 25 minutes after last dose, interspersed with occasional arrhythmia”, the “abnormal beats (periods in electrocardiogram)” value was “less than 10%”. Under “oral 30, 30 and 50 mg/kg, recording then terminated”, the “time after last dose over which antiarrhythmic effects continue to be observed” value was at least 140 min. The “time after first dosage to periods of reduced frequency of abnormal heart beats” value (oral gelatin capsules, 30, 30 and 50 mg/kg over 150 minutes) stood at 10 min.
